This note sets out measurements from paper PMC8344021, “Discovery of Small Molecule Bak Activator for Lung Cancer Therapy” (Theranostics, 2021).

In one experiment the test system is DMS114 xenografts. Briefly: SCLC DMS114 xenografts, tumor growth. In kind it is in vivo, Nu/Nu nude mice. The conditions noted are these: 15mg/kg/d i.p., 2-4 weeks. The procedure:
(§1) Six-week-old female Nu/Nu nude mice were purchased from Envigo (Indianapolis, IN) and housed under pathogen-free conditions in microisolator cages. The animal propagation protocol was approved by the Emory Institutional Animal Care and Use Committee (IACUC) and the Emory Animal Ethics Committee. 3×10^6 lung cancer cells were injected into subcutaneous tissue in the flank region of nude mice. The tumors were allowed to grow to an average volume of 150~200 mm^3 prior to initiation of therapy as previously described, [29]. Patient-derived xenografts (PDXs, TKO-002 and TKO-005) were established as part of an IRB-approved phase II co-clinical trial of arsenic trioxide in patients with relapsed SCLC who had failed standard platinum-based chemotherapy. Tumor samples were obtained by image-guided biopsy and were directly implanted into Nu/Nu nude mice without intervening propagation in plastic culture plates. Direct serial propagation of growing tumor occurred for up to 5 generations. The animal propagation protocol was approved by the Emory IACUC and the Emory Animal Ethics Committee. Mice with SCLC and NSCLC xenografts or PDXs were treated with BKA-073 intraperitoneally (i.p.) or venetoclax orally as indicated. During treatment, tumor volume (V) was measured by caliper measurements once every two days as described previously. Mice were euthanized by CO2 inhalation at the end of treatment. […]

Another experiment has as its system A549-IRR xenografts. Briefly: Radioresistant A549-IRR xenografts, tumor growth. In kind it is in vivo, Nu/Nu nude mice. The conditions noted are these: 15 mg/kg/d, 4 weeks. As to the method: as §1, with “The animal propagation protocol was approved by the Emory IACUC and the Emory Animal Ethics Committee. Mice with SCLC and NSCLC xenografts or PDXs were treated with BKA-073 intraperitoneally (i.p.) or venetoclax orally as indicated.” left out, “previously.” for “previously. Mice were euthanized by CO2 inhalation at the end of treatment.”
Figure S7. […] (A) Expression levels of Bak in A549-P versus A549-IRR cells, H358-P versus H358 -IRR cells or H460-P versus H460-IRR cells were analyzed by Western blot. […]
Tumor volume was measured once every 2 days. After treatment, mice were sacrificed and tumors were removed and analyzed. […]

Take `COc1ccc2nc3ccccc3c(NCCNCC(C)O)c2c1` (centres unmarked) [BKA-073]: the tumor growth result in the experiment on DMS114 xenografts was “potently suppressed tumor growth”; in the experiment with A549-IRR xenografts, “repressed xenografts”.
